Key:
prostanoid EP2 receptor [1] = molecular target: T1, prostanoid EP2 receptor (Homo sapiens, UniProt P43116); experiment: HEK293-pCRE5/SEAP transfectoma stably transfected with EP2 receptor, response to PGE2 with or without IBMX; format: cell-based; settings: stable EP2 transfectant, 100 μM IBMX vs absence, 6 h
T1 construct: expressed in transfected cells
Method: A HEK293-pCRE5/SEAP transfectoma was stably transfected with the prostanoid EP2 receptor and challenged with PGE2 in the absence (empty circles) or presence (closed circles) of 100 μM IBMX for 6 h and SEAP activity determined (FIG. 5). In this case, EC50 was shifted 10-fold to the left.

prostanoid EP2 receptor [2] = experiment: Transient expression and activation of the EP2 receptor in the HEK293-pCRE5/SEAP transfectoma (SEAP reporter); format: cell-based; settings: transiently transfected EP2 receptor, PGE2 challenge for 6 hours, SEAP readout; read-out: estimated EC50
Method: Twenty four hours after transfection with a plasmid containing the prostanoid EP2 receptor (closed symbol) or the empty vector (open symbol), the HEK293-pCRE5/SEAP transfectoma was challenged with PGE2 for 6 hours (FIG. 4). The estimated EC50 was below 1 nM of PGE2.

[3] = tested on: HEK293-pCRE5/SEAP transfectoma; experiment: Forskolin-induced SEAP production in stable HEK293-pCRE5/SEAP transfectoma, 50 h; format: cell-based, human
Method: Upper Panel A: Stable HEK293-pCRE5/SEAP transfectoma was stimulated with 20 μM forskolin with or without 100 μM IBMX or 200 μM theophylline for 50 h and SEAP activity was then measured on an aliquot of the supernatant (FIG. 7).

T1 sequence (P43116 whole entry, species assumed): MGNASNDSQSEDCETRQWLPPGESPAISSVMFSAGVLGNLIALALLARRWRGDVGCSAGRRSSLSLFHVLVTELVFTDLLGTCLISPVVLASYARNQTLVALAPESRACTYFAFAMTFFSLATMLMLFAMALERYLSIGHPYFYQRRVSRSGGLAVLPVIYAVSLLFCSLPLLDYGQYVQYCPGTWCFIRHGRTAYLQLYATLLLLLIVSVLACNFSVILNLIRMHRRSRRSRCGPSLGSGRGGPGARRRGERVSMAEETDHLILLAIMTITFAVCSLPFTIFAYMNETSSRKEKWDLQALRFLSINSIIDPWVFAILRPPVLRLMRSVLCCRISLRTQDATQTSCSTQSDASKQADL

EC50 shift to the left in presence of IBMX (prostanoid EP2 receptor [1]) [fold] | EC50 (prostanoid EP2 receptor [2]) [nM] | SMILES | fold-induction of SEAP activity (Panel B, independent experiment) ([3]; 20 μM forskolin with or without 100 μM IBMX) [fold] | fold-induction of SEAP activity (Panel A) ([3]; 20 μM forskolin with or without 100 μM IBMX or 200 μM theophylline) [fold]
10 | < 1 | CCCCC[C@H](O)/C=C/[C@H]1[C@H](O)CC(=O)[C@@H]1C/C=C\CCCC(=O)O [PGE2] | – | –
– | – | C=C[C@@]1(C)CC(=O)[C@]2(O)[C@@]3(C)[C@@H](O)CCC(C)(C)[C@@H]3[C@H](O)[C@H](OC(C)=O)[C@@]2(C)O1 [forskolin] | 198 | 128

Reference: patent US6596508B2, “CRE-inducible expression system” (National Research Council of Canada, priority 1999, dated 2003)
